For the assay, the system named is Human Pan T Cell (IL-2 release). Kind of assay: IL2 released by human pan T cell upon anti-CD3/anti-CD28 stimulation (ELISA). The format is cell-based. Conditions: human pan T cells; for EC (2-fold response) / maximal fold induction / EC50: Homo sapiens, T-cell; for EC (2-fold response) / maximal fold induction: 48 h; for maximal fold induction: response of IL-2 over DMSO control, anti-CD3/anti-CD28, 48 hours, ELISA, read-out: IL-2 Max Fold Response; for EC50: IL-2 response, calculated with GraphPad Prism. In short, it runs like this: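 Primary human pan-T cells, negatively isolated from PBMC, plated at 100,000 cells/well and stimulated with immobilized anti-CD3 plus soluble anti-CD28 in presence of test compound at varying concentrations. After 2 days, secreted IL-2 in supernatant quantified by ELISA.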

Where [1] appears, read: concentration of compound that gives 200% IL-2 response (2 folds) over DMSO control.

Some results are limits rather than exact numbers.

As for `COc1nc2c(cc1Nc1ncc(Cl)c(N3CCc4ccccc43)n1)CN(C)CC2` [Example 19, N-(5-chloro-4-(indolin-1-yl)pyrimidin-2-yl)-2-methoxy-6-methyl-5,6,7,8-tetrahydro-1,6-naphthyridin-3-amine], the maximal fold induction is > 2 and the EC50 is 100 to 500 nM. Under setting [1], the EC (2-fold response) lay in the range of 0.1 to 0.5 µM.

As for `COc1cc2c(cc1Nc1ncc(Cl)c(N3CCc4ccc(F)cc43)n1)CN(C)CC2` [Example 21, N-(5-chloro-4-(6-fluoroindolin-1-yl)pyrimidin-2-yl)-6-methoxy-2-methyl-1,2,3,4-tetrahydroisoquinolin-7-amine], the maximal fold induction is > 2 and the EC50 is 100 to 500 nM. In addition, the EC (2-fold response) under setting [1] is 0.1 to 0.5 µM.

Turning to `COc1cc2c(cc1Nc1ncc(Cl)c(N3CCc4ccccc43)n1)CNCC2` [Example 23, N-(5-chloro-4-(indolin-1-yl)pyrimidin-2-yl)-6-methoxy-1,2,3,4-tetrahydroisoquinolin-7-amine], the maximal fold induction is < 2 and the EC50 was 100 to 500 nM.

For the molecule `COc1cc2c(cc1Nc1ncc(Cl)c(N3CC(C(N)=O)c4ccccc43)n1)CN(C)CC2` (stereo not drawn) [Example 33, 1-(5-Chloro-2-((6-methoxy-2-methyl-1,2,3,4-tetrahydroisoquinolin-7-yl)amino)pyrimidin-4-yl)indoline-3-carboxamide], the maximal fold induction was < 2.

`COc1cc2c(cc1Nc1ncc3ccn(-c4ccccn4)c3n1)CN(C)CC2` [Example 37, 6-Methoxy-2-methyl-N-(7-(pyridin-2-yl)-7H-pyrrolo[2,3-d]pyrimidin-2-yl)-1,2,3,4-tetrahydroisoquinolin-7-amine]: the maximal fold induction is < 2 and the EC50 is 100 to 500 nM.

For the molecule `COc1cc2c(cc1Nc1ncc(Cl)c(N3CC(C)(C)c4ccccc43)n1)CN(C)CC2` [Example 25, N-(5-Chloro-4-(3,3-dimethylindolin-1-yl)pyrimidin-2-yl)-6-methoxy-2-methyl-1,2,3,4-tetrahydroisoquinolin-7-amine], the maximal fold induction was > 2 and the EC50 is 500 to 1000 nM. Also, under setting [1], the EC (2-fold response) was in the range of 0.1 to 0.5 µM.

As to `COc1cc2c(cc1Nc1ncc(Cl)c(N3CC(C(=O)O)c4ccccc43)n1)CN(C)CC2` (stereo not drawn) [Example 32, 1-(5-Chloro-2-((6-methoxy-2-methyl-1,2,3,4-tetrahydroisoquinolin-7-yl)amino)pyrimidin-4-yl)indoline-3-carboxylic acid], the maximal fold induction was > 2 and the EC50 is 100 to 500 nM. For the same molecule, the EC (2-fold response) under setting [1] is 0.1 to 0.5 µM.

With `COc1cc2c(cc1Nc1ncc(Cl)c(N3CCc4ccccc43)n1)CN(C(C)C)CC2` [Example 22, N-(5-chloro-4-(indolin-1-yl)pyrimidin-2-yl)-2-isopropyl-6-methoxy-1,2,3,4-tetrahydroisoquinolin-7-amine], the maximal fold induction was > 2 and the EC50 is 500 to 1000 nM. Under setting [1], the EC (2-fold response) was 0.1 to 0.5 µM.

Consider `COc1cc2c(cc1Nc1ncc(Cl)c(-n3cc(P(C)(C)=O)c4ccccc43)n1)CN(C)CC2` [Example 1, (1-(5-Chloro-2-((6-methoxy-2-methyl-1,2,3,4-tetrahydroisoquinolin-7-yl)amino)pyrimidin-4-yl)-1H-indol-3-yl)dimethylphosphine oxide], for which the maximal fold induction is < 2.

Take `COc1cc2c(cc1Nc1ncc(Cl)c(-n3cc(C(N)=O)c4ccccc43)n1)CN(C)CC2` [Example 34]: the maximal fold induction was < 2.

For `COc1cc2c(cc1Nc1ncc3ccn(-c4ccccc4)c3n1)CN(C)CC2` [Example 36, 6-methoxy-2-methyl-N-(7-phenyl-7H-pyrrolo[2,3-d]pyrimidin-2-yl)-1,2,3,4-tetrahydroisoquinolin-7-amine], the maximal fold induction is < 2.

For the molecule `COc1cc2c(cc1Nc1ncc(Cl)c(N3CCc4cc(F)ccc43)n1)CN(C)CC2` [Example 20, N-(5-chloro-4-(5-fluoroindolin-1-yl)pyrimidin-2-yl)-6-methoxy-2-methyl-1,2,3,4-tetrahydroisoquinolin-7-amine], the maximal fold induction is > 2 and the 50% effective concentration (EC50) is 100 to 500 nM. Moreover, under setting [1], the EC (2-fold response) was in the range of 0.1 to 0.5 µM.

In the case of `COc1cc2c(cc1Nc1ncc(Cl)c(-n3ncc4ccccc43)n1)CN(C)CC2` [Example 24, N-(5-Chloro-4-(1H-indazol-1-yl)pyrimidin-2-yl)-6-methoxy-2-methyl-1,2,3,4-tetrahydroisoquinolin-7-amine], the maximal fold induction is < 2 and the EC50 is 500 to 1000 nM.

For `COc1nc2c(cc1Nc1ncc(Cl)c(N3CCc4ncccc43)n1)CN(C)CC2` [Example 29, N-(5-Chloro-4-(2,3-dihydro-1H-pyrrolo[3,2-b]pyridin-1-yl)pyrimidin-2-yl)-2-methoxy-6-methyl-5,6,7,8-tetrahydro-1,6-naphthyridin-3-amine], the maximal fold induction was < 2 and the concentration giving a half-maximal response (EC50) was 500 to 1000 nM.

With `COc1cc2c(cc1Nc1ncc(Cl)c(-n3cc(C(=O)O)c4ccccc43)n1)CN(C)CC2` [Example 35], the maximal fold induction is > 2 and the EC50 is 500 to 1000 nM. Besides, the “EC2x (nM)” value under setting [1] is listed as “+ (“+”, for greater than 1 μM)”.

Source of the values: patent US12612424B2, “HPK1 inhibitors and uses thereof” (Regor Pharmaceuticals, Inc., priority 2019, dated 2026).
